Test: gradient 5% acetonitrile 3 min, to 50% in 2 min, to 85% in 15 min, held 3 min, 100 µL/min
Conditions: column: Zorbax Extend-C18 2.1 x 50 mm; eluents: water / acetonitrile, 0.1% formic acid
How it was run: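 Data were gathered over 3 months by HPLC coupled to a quadrupole time-of-flight mass spectrometer, operated in positive and negative ionization mode. Mixtures of ~100 pure standards ran on a Zorbax Extend-C18 column (2.1 × 50 mm, 1.8 μm) at 100 μL/min, with water and acetonitrile each containing 0.1% formic acid and dead and dwell volumes of 40 μL and 900 μL. Retention time was read from adduct peaks picked by computer and checked manually.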

RP-LC retention time [s] | SMILES
790 | Cc1cc(-c2nnc(C3CC3)o2)c(C)n1CC(=O)NC(C)c1ccccc1 (configuration not stated)
810 | COc1ccc(Cc2nnc3sc(-c4ccccc4)nn23)cc1
635 | Cc1cc2c(cc1NC(=O)c1ccco1)n(C)c(=O)n2C
612 | CCOC(=O)C1=C(N)Oc2c(oc(CO)cc2=O)C1c1cccnc1 (configuration not stated)
799 | O=C(NCc1ccc2c(c1)OCO2)C1CC(=O)N(CCc2c[nH]c3ccc(Cl)cc23)C1 (configuration not stated)
838 | Cc1cc(C)cc(C(=O)Nc2cc(-c3cccnc3)no2)c1
988 | Cc1nn(-c2ccc(-c3ccccc3)nn2)c(C)c1S(=O)(=O)NCc1ccc(F)cc1
823 | O=C(Nc1nc2c(s1)CN(S(=O)(=O)c1ccccc1)CC2)c1ccoc1
858 | O=C(Nc1cc(F)cc(F)c1)C1CCN(C(=O)c2ncn3c2COC(c2ccc(F)cc2)C3)CC1 (configuration not stated)
870 | CN1C(=O)c2cccnc2Sc2cc(NC(=O)c3ccc(Cl)s3)ccc21
834 | COc1ccc(-c2noc(Cn3ccn(-c4cc(C)cc(C)c4)c(=O)c3=O)n2)cc1OC
1040 | Cc1cc(C)c2c(-n3cccc3)nn(CC(=O)NCC(C)c3ccccc3)c2n1 (configuration not stated)
773 | COCc1nc(-c2ccc(OC3CN(C(=O)NC(C)C)C3)cc2)no1
648 | CCCCn1c(CN(C)C(=O)c2ccco2)nc2ccccc21
1130 | CC1CCN(Cc2csc(N3CCN(C(=O)CSc4ccccc4)CC3)n2)CC1
991 | CS(=O)(=O)N1CCC(C(=O)NC2CCCCCC2)Oc2ccc(Cl)cc21 (configuration not stated)
627 | CCc1nnc(NC(=O)c2ccc(N3C(=O)CCC3=O)cc2)s1
610 | CCCN1CCN(c2ncc(C(=O)Nc3ccccc3)c(N)n2)CC1
603 | O=C(NCCc1csc(C2CCN(C(=O)C3CCCO3)CC2)n1)C1CC1 (configuration not stated)

RP-LC retention time [s] | SMILES
768 | O=C(COc1ccccc1F)NC1CCCCC1N1C(=O)CSC1=O (configuration not stated)
786 | Cc1ccc(CNC(=O)C2CCCN2S(=O)(=O)c2cc3c(cc2Cl)NC(=O)CO3)cc1 (configuration not stated)
681 | CCN(CC)CCCNc1ccc(-c2nc(-c3ccc(OC)cc3)no2)cn1
616 | Cc1ccc(-n2c(=O)n(CC(=O)NCCN3CCCCC3)c3cccnc32)cc1
697 | Cc1oc2cc3oc(=O)c(CC(=O)N4CCC(C(N)=O)CC4)c(C)c3cc2c1C
852 | COc1ccc(NC(=O)c2cccc(F)c2)c2ccccc12
736 | COc1ccccc1-c1nc(Cn2cccc(S(=O)(=O)N3CCCC3)c2=O)no1
1130 | O=C(Nc1cc(C(F)(F)F)cc(C(F)(F)F)c1)Nc1c(Br)cc(Br)cc1-c1nn[nH]n1
700 | CCn1cnc2cc(-c3noc(C4CC(=O)N(c5ccc(C)cc5)C4)n3)ccc21 (configuration not stated)
1140 | COc1ccc(-c2noc(C3(NC(=O)c4ccc(OC)c(F)c4)CCCCC3)n2)cc1
692 | CNC(=O)Nc1ccc(C2(C(=O)NC3CCCC3)CCC2)cc1
1040 | COc1ccc(C)cc1NC(=O)C1CCCN(S(=O)(=O)c2cc(-c3noc(C)n3)cs2)C1 (configuration not stated)
836 | Cc1ccc(-n2nnc(-c3noc(C)n3)c2C)cc1
893 | Cc1ccnn1-c1ccc(SCC(=O)Nc2ccc(F)cc2F)nn1
743 | O=C(NCc1cc(F)ccc1F)C1CCc2nc(N3CCCCC3)ncc2C1 (configuration not stated)
792 | CCCCN1CC(c2nc3ccccc3n2CC(=O)N(c2ccccc2)C(C)C)CC1=O (configuration not stated)
620 | CC1CCCCN1CCNC(=O)Cn1c2ccccc2c2cnn(C)c(=O)c21 (configuration not stated)
700 | Cc1ccc2c(c1)N(CCCC(=O)N1CCN(c3cc(=O)n(C)c(=O)n3C)CC1)C(=O)CO2
